Measured values: ChEMBL document CHEMBL5247659, “Design, Structure-Activity Relationships, and In Vivo Evaluation of Potent and Brain-Penetrant Imidazo[1,2-b]pyridazines as Glycogen Synthase Kinase-3β (GSK-3β) Inhibitors” (J Med Chem, 2023)

biological target: Glycogen synthase kinase-3 alpha (Homo sapiens, UniProt P49840); assay: Inhibition of full length GST-tagged human recombinant GSK3-alpha using FL-KRREILSRRP[ps]ERYR-NH2 as substrate incubated for 20 hrs
Sequence (P49840 whole entry): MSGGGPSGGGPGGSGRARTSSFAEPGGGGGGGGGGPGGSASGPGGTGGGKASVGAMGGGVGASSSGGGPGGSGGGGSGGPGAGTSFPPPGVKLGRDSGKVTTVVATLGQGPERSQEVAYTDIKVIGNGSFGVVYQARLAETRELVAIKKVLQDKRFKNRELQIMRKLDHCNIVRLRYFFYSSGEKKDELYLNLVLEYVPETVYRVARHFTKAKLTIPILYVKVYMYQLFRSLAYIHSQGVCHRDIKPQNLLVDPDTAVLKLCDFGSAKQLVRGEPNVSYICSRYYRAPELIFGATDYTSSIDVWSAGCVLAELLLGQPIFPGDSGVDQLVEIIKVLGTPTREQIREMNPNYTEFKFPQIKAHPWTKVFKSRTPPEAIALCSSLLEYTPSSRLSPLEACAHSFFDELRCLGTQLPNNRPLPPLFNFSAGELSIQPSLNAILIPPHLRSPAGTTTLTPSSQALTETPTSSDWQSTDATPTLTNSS

| SMILES | IC50 |
| --- | --- |
| O=C(Nc1cnccc1N1CCCCC1)c1ccnn2cc(-c3ccccc3)nc12 | 0.24 nM |
| O=C(Nc1cnccc1N1CCOCC1)c1ccnn2cc(-c3ccc(C(F)(F)F)cc3)nc12 | 0.23 nM |
| O=C(Nc1cnccc1OCC(F)(F)F)c1ccnn2cc(-c3ccccc3)nc12 | 0.09 nM |
| CC1CN(c2ccncc2NC(=O)c2ccnn3cc(-c4ccc(C(F)(F)F)cc4)nc23)CCO1 (configuration not stated) | 0.57 nM |
| C[C@@H]1CN(c2ccncc2NC(=O)c2ccnn3cc(-c4ccccc4)nc23)CCO1 | 0.34 nM |

Next, values leading:

| IC50 | SMILES |
| --- | --- |
| 7.5 nM | COc1cncc(NC(=O)c2ccnn3cc(-c4ccccc4)nc23)c1 |
| 0.32 nM | C[C@H]1COCCN1c1ccncc1NC(=O)c1ccnn2cc(-c3ccccc3)nc12 |

test system: not listed separately; assay: Inhibition of N-terminal 6-His tagged human recombinant GSK3-beta H355L mutant using FL-KRREILSRRP[ps]ERYR-NH2 as substrate incubated for 20 hrs

| SMILES | IC50 |
| --- | --- |
| C[C@@H]1COCCN1c1ccncc1NC(=O)c1ccnn2cc(-c3ccccc3)nc12 | 3.4 nM |
| CC1CN(c2ccncc2NC(=O)c2ccnn3c(NCC4CC4)cnc23)CCO1 (configuration not stated) | 5.2 nM |
| O=C(Nc1cnccc1N1CCCCC1)c1ccnn2cc(-c3ccccc3)nc12 | 1.1 nM |
| O=C(Nc1cnccc1N1CCOCC1)c1ccnn2cc(-c3ccc(C(F)(F)F)cc3)nc12 | 0.78 nM |
| O=C(Nc1cnccc1OCC(F)(F)F)c1ccnn2cc(-c3ccccc3)nc12 | 0.29 nM |
| CC(C)Oc1ccncc1NC(=O)c1ccnn2c(NCC3CC3)cnc12 | 6.7 nM |
| CC1CN(c2ccncc2NC(=O)c2ccnn3cc(-c4ccc(C(F)(F)F)cc4)nc23)CCO1 (configuration not stated) | 1.4 nM |
| Cc1ccncc1NC(=O)c1ccnn2cc(-c3ccccc3)nc12 | 3.5 nM |
| C[C@@H]1CN(c2ccncc2NC(=O)c2ccnn3cc(-c4ccccc4)nc23)CCO1 | 0.82 nM |

Continued, values first:

| IC50 | SMILES |
| --- | --- |
| 7 nM | CC1CN(c2ccncc2NC(=O)c2ccnn3ccnc23)CCO1 (configuration not stated) |
| 9 nM | O=C(Nc1cnccc1N1CCOCC1)c1ccnn2c(NCC3CC3)cnc12 |
| 14 nM | O=C(Nc1cnc(Cl)cc1N1CCC(F)(F)CC1)c1ccnn2cc(-c3ccccc3)nc12 |
| 37 nM | COc1cncc(NC(=O)c2ccnn3cc(-c4ccccc4)nc23)c1 |
| 63 nM | Cc1ccncc1NC(=O)c1ccnn2c(NCC3CC3)cnc12 |
| 1.5 nM | CS(=O)(=O)c1ccncc1NC(=O)c1ccnn2cc(-c3ccccc3)nc12 |
